Laboratory results as given in patent US6777412B2 (priority 1990, dated 2004).
Where two headings read alike, the source gives them in different places. Marks after values point to notes of the source that are not given here.

Tests used:
Type in all cases: in vivo
Puccinia recondita = assay: Foliar fungal disease test on plants: Puccinia recondita (Pr)
Experimental: (§1) The compounds were tested against a variety of foliar fungal diseases of plants. The technique employed was as follows.
(§2) The plants were grown in John Innes Potting Compost (No.1 or 2) in 4 cm diameter minipots. The test compounds were formulated either by bead milling with aqueous Dispersol T or as a solution in acetone or acetone/ethanol which was diluted to the required concentration immediately before use. For the foliage diseases, the formulations (100 ppm active ingredient except where otherwise indicated) were sprayed onto the foliage and applied to the roots of the plants in the soil. The sprays were applied to maximum retention and the root drenches to a final concentration equivalent to approximately 40 ppm a.i. in dry soil. Tween 20, to give a final concentration of 0.05%, was added when the sprays were applied to cereals.
(§3) For most of the tests the compound was applied to the soil (roots) and to the foliage (by spraying) one or two days before the plant was inoculated with the disease. An exception was the test on Erysiphe graminis in which the plants were inoculated 24 hours before treatment. Foliar pathogens were applied by spray as spore suspensions onto the leaves of test plants. After inoculation, the plants were put into an appropriate environment to allow infection to proceed and then incubated until the disease was ready for assessment. The period between inoculation and assessment varied from four to fourteen days according to the disease and environment.
(§4) The disease control vas recorded by the following grading:
(§5) 3=trace-5% of disease on untreated plants
(§6) 2=6-25% of disease on untreated plants
(§7) 1=26-59% of disease on untreated plants
(§8) 0=60-100% of disease on untreated plants

[1] = system: Erysiphe graminis tritici; assay: Foliar fungal disease test on plants: Erysiphe graminis tritici (Egt); conditions: 100 ppm active ingredient foliar spray plus root drench (approx. 40 ppm a.i. in dry soil); plants inoculated 24 hours before treatment
Experimental: as §1, §2, §3, §4, §5, §6, §7, §8
Egt Erysiphe graminis tritici

Septoria nodorum = assay: Foliar fungal disease test on plants: Septoria nodorum (Sn); conditions: 100 ppm active ingredient foliar spray plus root drench (approx. 40 ppm a.i. in dry soil), one or two days before inoculation
Experimental: as §1, §2, §3, §4, §5, §6, §7, §8

Pyricularia oryzae = system: Pyricularia oryzae
Venturia inaequalis = assay: Foliar fungal disease test on plants: Venturia inaequalis (Vi)
Experimental: as §1, §2, §3, §4, §5, §6, §7, §8

Plasmopara viticola = assay: Foliar fungal disease test on plants: Plasmopara viticola (Pv)
Experimental: as §1, §2, §3, §4, §5, §6, §7, §8

[2] = system: Phytophthora infestans lycopersici
Erysiphe graminis hordei = assay: Foliar fungal disease test on plants: Erysiphe graminis hordei (Egh)
Experimental: as §1, §2, §3, §4, §5, §6, §7, §8
Egh Erysiphe graminis hordei

[3] = 100 ppm active ingredient foliar spray plus root drench (approx. 40 ppm a.i. in dry soil), one or two days before inoculation
[4] = 100 ppm active ingredient foliar spray plus root drench (approx. 40 ppm a.i. in dry soil), plants inoculated 24 hours before treatment

Compound	disease control grading, Pr (Puccinia recondita) (Puccinia recondita; [3])	disease control grading, Egt (Erysiphe graminis tritici) [1]	disease control grading, Sn (Septoria nodorum) (Septoria nodorum)	disease control grading, Po (Pyricularia oryzae) (Pyricularia oryzae; [3])	disease control grading, Vi (Venturia inaegualis) (Venturia inaequalis; [3])	disease control grading, Pv (Plasmopara viticola) (Plasmopara viticola; [3])	disease control grading, Pil (Phytophthora infestans lycopersici) [2, 3]	disease control grading, Egh (Erysiphe graminis hordei) (Erysiphe graminis hordei; [4])	disease control grading, Pr (Puccinia recondita) (Puccinia recondita; 10 ppm foliar application only)	disease control grading, Egh (Erysiphe graminis hordei) (Erysiphe graminis hordei; 10 ppm foliar application only)	disease control grading, Po (Pyricularia oryzae) (Pyricularia oryzae; 10 ppm foliar application only)	disease control grading, Vi (Venturia inaegualis) (Venturia inaequalis; 10 ppm foliar application only)	disease control grading, Pv (Plasmopara viticola) (Plasmopara viticola; 10 ppm foliar application only)	disease control grading, Pil (Phytophthora infestans lycopersici) ([2]; 10 ppm foliar application only)
CCCCOc1ccccc1Nc1cc(Oc2ccccc2/C(=C\OC)C(=O)OC)ncn1 [402 of Table I]	4 (4=no disease)	4 (4=no disease)	4 (4=no disease)	0 (0=60-100% of disease on untreated plants)	4 (4=no disease)	4 (4=no disease)	3 (3=trace-5% of disease on untreated plants)							
CO/C=C(/C(=O)OC)c1ccccc1Oc1cc(OCc2ccccn2)ncn1 [222 of Table I]	4 (4=no disease)	4 (4=no disease)	3 (3=trace-5% of disease on untreated plants)	4 (4=no disease)	4 (4=no disease)	4 (4=no disease)	0 (0=60-100% of disease on untreated plants)							
CO/C=C(/C(=O)OC)c1ccccc1Oc1cc(OCc2ccc(F)cc2)ncn1 [405 of Table I]	4 (4=no disease)	4 (4=no disease)	0 (0=60-100% of disease on untreated plants)	4 (4=no disease)	4 (4=no disease)	4 (4=no disease)	4 (4=no disease)							
CO/C=C(/C(=O)OC)c1ccccc1Oc1cc(OCc2ccncc2)ncn1 [236 of Table I]	4 (4=no disease)	3 (3=trace-5% of disease on untreated plants)	3 (3=trace-5% of disease on untreated plants)	2 (2=6-25% of disease on untreated plants)	4 (4=no disease)	4 (4=no disease)	4 (4=no disease)							
CO/C=C(/C(=O)OC)c1ccccc1Oc1cc(OCCc2ccccc2OC)ncn1 [365 of Table I]	4 (4=no disease)			4 (4=no disease)	4 (4=no disease)	4 (4=no disease)	4 (4=no disease)	4 (4=no disease)						
CO/C=C(/C(=O)OC)c1ccccc1Oc1cc([S+]([O-])c2ccccc2)ncn1 (centres unmarked) [2 of Table I]									0^a (0=60-100% of disease on untreated plants)	0^a (0=60-100% of disease on untreated plants)	0^a (0=60-100% of disease on untreated plants)	0^a (0=60-100% of disease on untreated plants)	4^a (4=no disease)	0^a (0=60-100% of disease on untreated plants)
CO/C=C(/C(=O)OC)c1ccccc1Oc1cc(OCCOc2c(F)cccc2F)ncn1 [382 of Table I]	4 (4=no disease)			4 (4=no disease)	4 (4=no disease)	4 (4=no disease)	4 (4=no disease)	4 (4=no disease)						
CO/C=C(/C(=O)OC)c1ccccc1Oc1cc(OCCc2ccccc2C#N)ncn1 [357 of Table I]	4 (4=no disease)			4 (4=no disease)	4 (4=no disease)	4 (4=no disease)	4 (4=no disease)	4 (4=no disease)						
CO/C=C(/C(=O)OC)c1ccccc1Oc1cc(OS(=O)(=O)c2ccccc2C#N)ncn1 [381 of Table I]	2 (2=6-25% of disease on untreated plants)			2 (2=6-25% of disease on untreated plants)	0 (0=60-100% of disease on untreated plants)	0 (0=60-100% of disease on untreated plants)	0 (0=60-100% of disease on untreated plants)	0 (0=60-100% of disease on untreated plants)						
CO/C=C(/C(=O)OC)c1ccccc1Oc1cc(OCCc2ccccc2F)ncn1 [366 of Table I]	4 (4=no disease)			4 (4=no disease)	4 (4=no disease)	4 (4=no disease)	4 (4=no disease)	4 (4=no disease)						
CO/C=C(/C(=O)OC)c1ccccc1Oc1cc(OC/C=C/c2ccccc2C#N)ncn1 [395 of Table I]	4 (4=no disease)	4 (4=no disease)	3 (3=trace-5% of disease on untreated plants)	4 (4=no disease)	4 (4=no disease)	4 (4=no disease)								
CO/C=C(/C(=O)OC)c1ccccc1Oc1cc(Nc2ccccc2OC)ncn1 [380 of Table I]	4 (4=no disease)			4 (4=no disease)	4 (4=no disease)	4 (4=no disease)	3 (3=trace-5% of disease on untreated plants)	4 (4=no disease)						
CO/C=C(/C(=O)OC)c1ccccc1Oc1cc(OC(C#N)c2ccccc2)ncn1 (centres unmarked) [369 of Table I]	4 (4=no disease)			4 (4=no disease)	4 (4=no disease)	4 (4=no disease)	3 (3=trace-5% of disease on untreated plants)	4 (4=no disease)						
CO/C=C(/C(=O)OC)c1ccccc1Oc1cc(OCCc2ccccc2[N+](=O)[O-])ncn1 [358 of Table I]	4 (4=no disease)			4 (4=no disease)	4 (4=no disease)	4 (4=no disease)	4 (4=no disease)	4 (4=no disease)						
CO/C=C(/C(=O)OC)c1ccccc1Oc1cc(OCCOc2ccccc2C#N)ncn1 [396 of Table I]	4 (4=no disease)	4 (4=no disease)	4 (4=no disease)	4 (4=no disease)	3 (3=trace-5% of disease on untreated plants)	4 (4=no disease)								
CO/C=C(/C(=O)OC)c1ccccc1Oc1cc(OCc2ccncn2)ncn1 [250 of Table I]		4 (4=no disease)	4 (4=no disease)	2 (2=6-25% of disease on untreated plants)		4 (4=no disease)								
CO/C=C(/C(=O)OC)c1ccccc1Oc1cc(Sc2ccccc2)ncn1 [1 of Table I]	4 (4=no disease)			4 (4=no disease)	4 (4=no disease)	4 (4=no disease)	4 (4=no disease)	4 (4=no disease)						
